Measurements: article PMC4109385 (BMC Microbiology, 2014)

Target: ClpC (with MecA) (Streptococcus mutans, UniProt Q8DS14)
Settings: 2 mM ATP, 5 mM MgCl2, 100 mM KCl, 25 mM Tris-HCl pH 8.0, 37 °C; 0.3 uM proteins; MecA present

ClpC (with MecA), sequence (Q8DW33 whole entry): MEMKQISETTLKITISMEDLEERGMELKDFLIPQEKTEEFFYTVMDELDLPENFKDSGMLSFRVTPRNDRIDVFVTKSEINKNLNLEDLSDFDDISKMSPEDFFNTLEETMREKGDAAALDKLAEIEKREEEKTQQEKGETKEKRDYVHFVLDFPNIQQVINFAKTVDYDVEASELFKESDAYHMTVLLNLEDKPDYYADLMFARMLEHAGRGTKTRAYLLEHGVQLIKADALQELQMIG
ClpC (with MecA), sequence (Q8DS14 entry or part of it): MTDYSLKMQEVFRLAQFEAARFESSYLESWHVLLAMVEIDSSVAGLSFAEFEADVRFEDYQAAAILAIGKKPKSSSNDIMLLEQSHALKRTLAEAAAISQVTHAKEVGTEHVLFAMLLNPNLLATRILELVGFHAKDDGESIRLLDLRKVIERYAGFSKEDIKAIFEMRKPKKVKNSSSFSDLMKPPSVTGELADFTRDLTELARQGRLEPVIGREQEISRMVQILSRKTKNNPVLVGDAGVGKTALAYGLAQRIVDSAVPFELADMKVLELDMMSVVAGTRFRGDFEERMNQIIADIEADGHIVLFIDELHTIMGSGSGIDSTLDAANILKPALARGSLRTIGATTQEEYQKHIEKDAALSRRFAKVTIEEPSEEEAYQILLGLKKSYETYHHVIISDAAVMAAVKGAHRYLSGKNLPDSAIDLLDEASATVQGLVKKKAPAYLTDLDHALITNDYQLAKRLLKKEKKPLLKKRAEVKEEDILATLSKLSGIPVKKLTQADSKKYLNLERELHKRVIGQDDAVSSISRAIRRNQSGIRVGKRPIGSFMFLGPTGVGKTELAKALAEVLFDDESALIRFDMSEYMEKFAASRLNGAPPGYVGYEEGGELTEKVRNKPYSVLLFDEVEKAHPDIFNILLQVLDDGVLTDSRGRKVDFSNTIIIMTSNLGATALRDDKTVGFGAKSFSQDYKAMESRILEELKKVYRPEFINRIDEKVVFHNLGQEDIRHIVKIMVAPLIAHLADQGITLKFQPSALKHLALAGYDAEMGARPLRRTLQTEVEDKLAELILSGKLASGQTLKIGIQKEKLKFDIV

Nc1ncnc2c1ncn2[C@@H]1O[C@H](COP(=O)(O)OP(=O)(O)OP(=O)(O)O)[C@@H](O)[C@H]1O [ATP]
malachite green ATPase assay (released orthophosphate): the presence of MecA increased the ATPase activity of ClpC (Figure 6A)
